Assays:
Assay type in all cases: cell-based
Pseudomonas aeruginosa = assay: Successive dilution in TSB, growth inhibition; design: key: The presence of a “+” in the box indicates that the particular bacteria was found; the presence of a “−” indicates that the particular bacteria was not found
Protocol: (§1) The following is a summary of an experiment using the benzaldehyde composition as disclosed herein to destroy bacteria, for example to test it as a preservative of food. The benzaldehyde was tested for its ability to inhibit the growth of microbes at ten different concentrations of the benzaldehyde, each concentration was half of the previous concentrations as a result of a dilution using TSB as the medium. The following concentrations were tested by successive dilutions of 100% benzaldehyde: 50%, 25%, 12.5%, 6.25%, 3.125%, 1.5625%, 0.78125%, 0.390625%, 0.195313%, 0.097656%. Each concentration appears in the chart below for each of five different strains of bacteria. The experiment was conducted twice and therefore generated two charts (see below). […] Thus, the minimum concentration needed to substantially eliminate the bacterial strain can be deduced from the experiment.
(§2) The initial concentration of the microbes was approximately […]. The microbes studied are listed below. Enterococcus feaclis • 2. Staphylococcus aureus • 3. Pseudomonas aeruginosa • 4. E. coli • 5. Klebsiella pneomoniae

Klebsiella pneomoniae = assay: Successive dilution in TSB, growth inhibition; design: key: The presence of a “+” in the box indicates that the particular bacteria was found; the presence of a “−” indicates that the particular bacteria was not found
Protocol: as §1, §2

Enterococcus feaclis = assay: Successive dilution in TSB, growth inhibition; design: key: The presence of a “+” in the box indicates that the particular bacteria was found; the presence of a “−” indicates that the particular bacteria was not found
Protocol: as §1, §2

E. coli [1] = assay: Successive dilution in TSB, growth inhibition; design: key: The presence of a “+” in the box indicates that the particular bacteria was found; the presence of a “−” indicates that the particular bacteria was not found
Protocol: as §1, §2

Staphylococcus aureus = assay: Successive dilution in TSB, growth inhibition; design: key: The presence of a “+” in the box indicates that the particular bacteria was found; the presence of a “−” indicates that the particular bacteria was not found
Protocol: as §1, §2

E. coli [2] = assay: Successive dilution in TSB, growth inhibition; design: key: The presence of a “+” in the box indicates that the particular bacteria was found; the presence of a “−” indicates that the particular bacteria was not found; conditions: benzaldehyde concentration given as 2, in TSB; Table 1
[3] = system: five different strains of bacteria; assay: Successive dilution in TSB, statements on all five strains
Protocol: as §1, §2
A further experiment was conducted in which instead of starting from a 100% concentration, we started from a 10% concentration of benzaldehyde and performed successive dilutions. […] This experimental was not repeated after receiving the results.

[4] = benzaldehyde 0.097656% in TSB, Table 1
[5] = benzaldehyde 0.097656% in TSB, Table 2
[6] = benzaldehyde 0.195313% in TSB, Table 1
[7] = benzaldehyde 0.195313% in TSB, Table 2
[8] = benzaldehyde 0.390625% in TSB, Table 1
[9] = benzaldehyde 0.390625% in TSB, Table 2
[10] = benzaldehyde 0.78125% in TSB, Table 1
[11] = benzaldehyde 0.78125% in TSB, Table 2
[12] = benzaldehyde 1.5625% in TSB, Table 1
[13] = benzaldehyde 1.5625% in TSB, Table 2
[14] = benzaldehyde 3.125% in TSB, Table 1
[15] = benzaldehyde 3.125% in TSB, Table 2
[16] = benzaldehyde 6.25% in TSB, Table 1
[17] = benzaldehyde 6.25% in TSB, Table 2
[18] = benzaldehyde 12.5% in TSB, Table 1
[19] = benzaldehyde 12.5% in TSB, Table 2
[20] = benzaldehyde 25% in TSB, Table 2
[21] = benzaldehyde 50% in TSB, Table 1
[22] = benzaldehyde 50% in TSB, Table 2
[23] = benzaldehyde concentration given as 2, in TSB, Table 1
[24] = conclusion from the dilution experiments

SMILES: O=Cc1ccccc1 [Benzaldehyde]
- bacteria found (+) / not found (−) (Pseudomonas aeruginosa; [4]): +
- bacteria found (+) / not found (−) (Pseudomonas aeruginosa; [5]): +
- bacteria found (+) / not found (−) (Pseudomonas aeruginosa; [6]): +
- bacteria found (+) / not found (−) (Pseudomonas aeruginosa; [7]): +
- bacteria found (+) / not found (−) (Pseudomonas aeruginosa; [8]): +
- bacteria found (+) / not found (−) (Pseudomonas aeruginosa; [9]): +
- bacteria found (+) / not found (−) (Pseudomonas aeruginosa; [10]): +
- bacteria found (+) / not found (−) (Pseudomonas aeruginosa; [11]): +
- bacteria found (+) / not found (−) (Pseudomonas aeruginosa; [12]): −
- bacteria found (+) / not found (−) (Pseudomonas aeruginosa; [13]): −
- bacteria found (+) / not found (−) (Pseudomonas aeruginosa; [14]): −
- bacteria found (+) / not found (−) (Pseudomonas aeruginosa; [15]): −
- bacteria found (+) / not found (−) (Pseudomonas aeruginosa; [16]): −
- bacteria found (+) / not found (−) (Pseudomonas aeruginosa; [17]): −
- bacteria found (+) / not found (−) (Pseudomonas aeruginosa; [18]): −
- bacteria found (+) / not found (−) (Pseudomonas aeruginosa; [19]): −
- bacteria found (+) / not found (−) (Pseudomonas aeruginosa; [20]): −
- bacteria found (+) / not found (−) (Pseudomonas aeruginosa; [21]): −
- bacteria found (+) / not found (−) (Pseudomonas aeruginosa; [22]): −
- bacteria found (+) / not found (−) (Pseudomonas aeruginosa; in TSB, Table 1): −
- bacteria found (+) / not found (−) (Klebsiella pneomoniae; [4]): +
- bacteria found (+) / not found (−) (Klebsiella pneomoniae; [5]): +
- bacteria found (+) / not found (−) (Klebsiella pneomoniae; [6]): +
- bacteria found (+) / not found (−) (Klebsiella pneomoniae; [7]): +
- bacteria found (+) / not found (−) (Klebsiella pneomoniae; [8]): +
- bacteria found (+) / not found (−) (Klebsiella pneomoniae; [9]): −
- bacteria found (+) / not found (−) (Klebsiella pneomoniae; [10]): +
- bacteria found (+) / not found (−) (Klebsiella pneomoniae; [11]): −
- bacteria found (+) / not found (−) (Klebsiella pneomoniae; [12]): −
- bacteria found (+) / not found (−) (Klebsiella pneomoniae; [13]): −
- bacteria found (+) / not found (−) (Klebsiella pneomoniae; [14]): −
- bacteria found (+) / not found (−) (Klebsiella pneomoniae; [15]): −
- bacteria found (+) / not found (−) (Klebsiella pneomoniae; [16]): −
- bacteria found (+) / not found (−) (Klebsiella pneomoniae; [17]): −
- bacteria found (+) / not found (−) (Klebsiella pneomoniae; [18]): −
- bacteria found (+) / not found (−) (Klebsiella pneomoniae; [19]): −
- bacteria found (+) / not found (−) (Klebsiella pneomoniae; [20]): −
- bacteria found (+) / not found (−) (Klebsiella pneomoniae; [21]): −
- bacteria found (+) / not found (−) (Klebsiella pneomoniae; [22]): −
- bacteria found (+) / not found (−) (Klebsiella pneomoniae; [23]): −
- bacteria found (+) / not found (−) (Enterococcus feaclis; [4]): +
- bacteria found (+) / not found (−) (Enterococcus feaclis; [5]): +
- bacteria found (+) / not found (−) (Enterococcus feaclis; [6]): +
- bacteria found (+) / not found (−) (Enterococcus feaclis; [7]): +
- bacteria found (+) / not found (−) (Enterococcus feaclis; [8]): +
- bacteria found (+) / not found (−) (Enterococcus feaclis; [9]): +
- bacteria found (+) / not found (−) (Enterococcus feaclis; [10]): +
- bacteria found (+) / not found (−) (Enterococcus feaclis; [11]): +
- bacteria found (+) / not found (−) (Enterococcus feaclis; [12]): +
- bacteria found (+) / not found (−) (Enterococcus feaclis; [13]): +
- bacteria found (+) / not found (−) (Enterococcus feaclis; [14]): +
- bacteria found (+) / not found (−) (Enterococcus feaclis; [15]): +
- bacteria found (+) / not found (−) (Enterococcus feaclis; [16]): +
- bacteria found (+) / not found (−) (Enterococcus feaclis; [17]): +
- bacteria found (+) / not found (−) (Enterococcus feaclis; [18]): −
- bacteria found (+) / not found (−) (Enterococcus feaclis; [19]): −
- bacteria found (+) / not found (−) (Enterococcus feaclis; [20]): −
- bacteria found (+) / not found (−) (Enterococcus feaclis; [21]): −
- bacteria found (+) / not found (−) (Enterococcus feaclis; [22]): −
- bacteria found (+) / not found (−) (Enterococcus feaclis; [23]): −
- bacteria found (+) / not found (−) (E. coli [1]; [4]): +
- bacteria found (+) / not found (−) (E. coli [1]; [5]): +
- bacteria found (+) / not found (−) (E. coli [1]; [6]): +
- bacteria found (+) / not found (−) (E. coli [1]; [7]): +
- bacteria found (+) / not found (−) (E. coli [1]; [8]): +
- bacteria found (+) / not found (−) (E. coli [1]; [9]): +
- bacteria found (+) / not found (−) (E. coli [1]; [10]): +
- bacteria found (+) / not found (−) (E. coli [1]; [11]): +
- bacteria found (+) / not found (−) (E. coli [1]; [12]): −
- bacteria found (+) / not found (−) (E. coli [1]; [13]): −
- bacteria found (+) / not found (−) (E. coli [1]; [14]): −
- bacteria found (+) / not found (−) (E. coli [1]; [15]): −
- bacteria found (+) / not found (−) (E. coli [1]; [16]): −
- bacteria found (+) / not found (−) (E. coli [1]; [17]): −
- bacteria found (+) / not found (−) (E. coli [1]; [18]): −
- bacteria found (+) / not found (−) (E. coli [1]; [19]): −
- bacteria found (+) / not found (−) (E. coli [1]; [20]): −
- bacteria found (+) / not found (−) (E. coli [1]; [21]): −
- bacteria found (+) / not found (−) (E. coli [1]; [22]): −
- bacteria found (+) / not found (−) (Staphylococcus aureus; [4]): +
- bacteria found (+) / not found (−) (Staphylococcus aureus; [5]): +
- bacteria found (+) / not found (−) (Staphylococcus aureus; [6]): +
- bacteria found (+) / not found (−) (Staphylococcus aureus; [7]): +
- bacteria found (+) / not found (−) (Staphylococcus aureus; [8]): +
- bacteria found (+) / not found (−) (Staphylococcus aureus; [9]): +
- bacteria found (+) / not found (−) (Staphylococcus aureus; [10]): +
- bacteria found (+) / not found (−) (Staphylococcus aureus; [11]): +
- bacteria found (+) / not found (−) (Staphylococcus aureus; [12]): +
- bacteria found (+) / not found (−) (Staphylococcus aureus; [13]): −
- bacteria found (+) / not found (−) (Staphylococcus aureus; [14]): −
- bacteria found (+) / not found (−) (Staphylococcus aureus; [15]): −
- bacteria found (+) / not found (−) (Staphylococcus aureus; [16]): −
- bacteria found (+) / not found (−) (Staphylococcus aureus; [17]): −
- bacteria found (+) / not found (−) (Staphylococcus aureus; [18]): −
- bacteria found (+) / not found (−) (Staphylococcus aureus; [19]): −
- bacteria found (+) / not found (−) (Staphylococcus aureus; [20]): −
- bacteria found (+) / not found (−) (Staphylococcus aureus; [21]): −
- bacteria found (+) / not found (−) (Staphylococcus aureus; [22]): −
- bacteria found (+) / not found (−) (Staphylococcus aureus; [23]): −
- bacteria found (+) / not found (−) (E. coli [2]): −
- benzaldehyde concentration giving a broad spectrum effect [3, 24]: ≥ 12.5%
- benzaldehyde concentration giving an antibacterial effect against at least some bacteria [3, 24]: ≥ 1.5625%
- detection of bacteria ([3]; further experiment started from 10% benzaldehyde, first dilution to 5%, all strains): positive detection of bacteria for all strains

Reference: patent US20250161234A1, “METHODS OF USE OF BENZALDEHYDE COMPOSITIONS” (priority 2022, published 2025)
